The source of these data is DBAASP.

What is called MIC is the least concentration at which growth counts as inhibited. Higher therefore signals weaker potency.

Values after ≈ are worked out from the molar mass of the structure shown.

Among the test systems are Escherichia coli D31; Candida parapsilosis; Bacillus subtilis DELTA; Escherichia coli C600.
Holding throughout (experiment): ≥ marks a high value that may be exact or a test limit, other limits are often not marked, values filed in µg/mL are converted to µM
Assay [1] concerns Staphylococcus epidermidis ATCC 14990.
Assay [2] deals with Staphylococcus aureus ATCC 27660.
Assay [3] relates to Pseudomonas aeruginosa ATCC 10145.
Assay [4] deals with Salmonella enterica subsp. enterica serovar Typhimurium ATCC 700931.
The subject of assay [5] is Zymomonas mobilis ATCC 10988.
The test system of assay [6] is Escherichia coli DH5alpha.
Assay [7] concerns Pseudomonas aeruginosa PAO1.
In assay [8] the test system is Streptococcus sanguinis ATCC 10556.
Assay [9] has as its system Streptococcus mutans UA159.
Assay [10] deals with Streptococcus sobrinus ATCC 6715.
The subject of assay [11] is Pseudomonas aeruginosa 0108.
Assay [12] deals with Staphylococcus epidermidis.
Assay [13] concerns Staphylococcus epidermidis CICC 23664.
In assay [14] the test system is Pseudomonas aeruginosa CGMCC 1.860.
Assay [15] concerns Klebsiella aerogenes ATCC 13048.
Assay [16] relates to Salmonella enterica subsp. enterica serovar Typhimurium ATCC 14028.
In assay [17] the test system is Bacillus cereus ATCC 11778.
In assay [18] the test system is Escherichia coli ATCC 25922.
For assay [19], the system named is Staphylococcus aureus ATCC 29213.
The subject of assay [20] is Escherichia coli NBRC 3972.
The test system of assay [21] is Staphylococcus aureus NBRC 13276.
Assay [22] concerns Pseudomonas aeruginosa NBRC 13275.
Assay [23] has as its system Staphylococcus aureus 209P.

For the compound `CC(C)C[C@H](NC(=O)[C@H](C)N)C(=O)N[C@@H](Cc1c[nH]c2ccccc12)C(=O)N[C@@H](CCCCN)C(=O)N[C@@H](CCCCN)C(=O)N[C@@H](CC(C)C)C(=O)N[C@@H](CC(C)C)C(=O)N[C@@H](CCCCN)C(=O)N[C@@H](CCCCN)C(=O)N[C@@H](CC(C)C)C(=O)N[C@@H](CC(C)C)C(=O)N[C@@H](CCCCN)C(=O)N[C@@H](CO)C(=O)N[C@@H](C)C(=O)N[C@@H](CCCCN)C(=O)N[C@@H](CCCCN)C(=O)N[C@@H](CC(C)C)C(=O)NCC(=O)O` [ALWKKLLKKLLKSAKKLG], the minimal inhibitory concentration (MIC) in [1] was 0.94 µM (≈ 1.94 µg/mL); in [2], 1.88 µM (≈ 3.89 µg/mL); in [3] it was 1.88 µM (≈ 3.89 µg/mL); in the assay on Escherichia coli D31, 0.94 µM (≈ 1.94 µg/mL); in [4], 1.88 µM (≈ 3.89 µg/mL).

As to `CC(C)[C@H](NC(=O)[C@H](C)N)C(=O)N[C@@H](Cc1c[nH]c2ccccc12)C(=O)N[C@@H](CCCCN)C(=O)N[C@@H](CCCCN)C(=O)N[C@H](C(=O)N[C@H](C(=O)N[C@@H](CCCCN)C(=O)N[C@@H](CCCCN)C(=O)N[C@H](C(=O)N[C@H](C(=O)N[C@@H](CCCCN)C(=O)N[C@@H](CO)C(=O)N[C@@H](C)C(=O)N[C@@H](CCCCN)C(=O)N[C@@H](CCCCN)C(=O)N[C@H](C(=O)NCC(=O)O)C(C)C)C(C)C)C(C)C)C(C)C)C(C)C` [AVWKKVVKKVVKSAKKVG], the MIC in assay [1] was found to be 7.5 µM (≈ 14.9 µg/mL); in assay [2] it was 7.5 µM (≈ 14.9 µg/mL); in assay [3] it was 7.5 µM (≈ 14.9 µg/mL); against Escherichia coli D31, 3.75 µM (≈ 7.43 µg/mL); in [4] it was 7.5 µM (≈ 14.9 µg/mL).

Turning to `CC[C@H](C)[C@H](NC(=O)[C@H](CCCN=C(N)N)NC(=O)[C@H](CCCCN)NC(=O)[C@H](Cc1ccccc1)NC(C)=O)C(=O)N[C@H](C(=O)N[C@@H](CCC(N)=O)C(=O)N[C@@H](CC(C)C)C(=O)N[C@@H](CC(C)C)C(=O)N[C@@H](CCCCN)C(=O)N[C@@H](CCCCN)C(=O)N[C@@H](CC(C)C)C(=O)N[C@@H](CC(C)C)C(=O)N[C@@H](CCCN=C(N)N)C(N)=O)C(C)C` [FKRIVQLLKKLLR], the MIC is 3.02 µM (≈ 5.12 µg/mL) in assay [5]; at least 60.4 µM in assay [6]; 1.81 µM (≈ 3.07 µg/mL) in assay [7]; 24.2 µM (≈ 41 µg/mL) against Candida parapsilosis; 6.04 µM (≈ 10.2 µg/mL) against Bacillus subtilis DELTA.

For the compound `CC(C)[C@H](NC(=O)[C@H](CCCCN)NC(=O)[C@H](C)NC(=O)[C@H](C)NC(=O)[C@H](CCCCN)NC(=O)[C@H](CCCCN)NC(=O)[C@H](Cc1ccccc1)NC(=O)[C@H](Cc1ccccc1)NC(=O)[C@H](CCCCN)NC(=O)CNC(=O)[C@H](Cc1c[nH]c2ccccc12)NC(=O)CN)C(=O)NCC(=O)N[C@@H](CCCCN)C(=O)N[C@@H](CCCCN)C(=O)N[C@H](C(=O)NCC(=O)O)C(C)C` [GWGKFFKKAAKVGKKVG], the MIC in [8], in assay [9] and in assay [10] was at least 279 µM each time.

Take `NCCCC[C@H](NC(=O)CNC(=O)[C@H](Cc1ccccc1)NC(=O)[C@H](CCCCN)NC(=O)[C@H](Cc1ccccc1)NC(=O)[C@H](Cc1ccccc1)NC(=O)[C@H](CCCCN)NC(=O)[C@H](CCCCN)NC(=O)[C@H](Cc1ccccc1)NC(=O)[C@H](Cc1ccccc1)NC(=O)[C@H](CCCCN)NC(=O)CNC(=O)[C@H](Cc1c[nH]c2ccccc12)NC(=O)CN)C(=O)O` [GWGKFFKKFFKFGK]: the MIC in assay [8], in [9] and in assay [10] was 9.13 µM (≈ 16 µg/mL) in each case.

With `CC[C@H](C)[C@H](N)C(=O)N[C@@H](CCCCN)C(=O)N[C@@H](CCCCN)C(=O)N[C@H](C(=O)N[C@@H](CC(C)C)C(=O)N[C@@H](CO)C(=O)N[C@@H](CCCCN)C(=O)N[C@H](C(=O)N[C@@H](CCCCN)C(=O)N[C@@H](CCCCN)C(=O)N[C@@H](CC(C)C)C(=O)N[C@@H](Cc1c[nH]c2ccccc12)C(=O)N[C@@H](CCCCN)C(N)=O)[C@@H](C)CC)[C@@H](C)CC` [IKKILSKIKKLWK], the MIC in [11] came to 25 µM (≈ 40.6 µg/mL); in [12], 12.5 µM (≈ 20.3 µg/mL); in [13] it was 12.5 µM (≈ 20.3 µg/mL); in [14], 25 µM (≈ 40.6 µg/mL).

Take `CC[C@H](C)[C@H](N)C(=O)N[C@@H](CCCCN)C(=O)N[C@@H](CCCCN)C(=O)N[C@H](C(=O)N[C@@H](CC(C)C)C(=O)N[C@@H](CO)C(=O)N[C@@H](CCCCN)C(=O)N[C@H](C(=O)N[C@@H](CCCCN)C(=O)N[C@@H](CCCCN)C(=O)N[C@@H](Cc1c[nH]c2ccccc12)C(=O)N[C@@H](CC(C)C)C(=O)N[C@@H](CCCCN)C(N)=O)[C@@H](C)CC)[C@@H](C)CC` [IKKILSKIKKWLK]: the MIC in assay [11] was 25 µM (≈ 40.6 µg/mL); in [12], 12.5 µM (≈ 20.3 µg/mL); in assay [13], 3.12 µM (≈ 5.07 µg/mL); in [14], 12.5 µM (≈ 20.3 µg/mL).

Take `CC[C@H](C)[C@H](N)C(=O)N[C@@H](CC(C)C)C(=O)NCC(=O)N[C@@H](CCCCN)C(=O)N[C@H](C(=O)N[C@@H](Cc1c[nH]c2ccccc12)C(=O)N[C@@H](CCC(=O)O)C(=O)NCC(=O)N[C@H](C(=O)N[C@@H](CCCCN)C(=O)N[C@@H](CO)C(=O)N[C@@H](CC(C)C)C(=O)N[C@@H](Cc1ccccc1)C(N)=O)C(C)C)C(C)C` [ILGKVWEGVKSLF]: the minimum inhibitory concentration (MIC) was at least 67.8 µM in assay [15]; above 67.8 µM in assay [16]; at least 67.8 µM in assay [17]; above 67.8 µM in assay [18]; above 67.8 µM in assay [19].

Consider `CC(=O)N[C@@H](CCCCN)C(=O)N[C@@H](CCCCN)C(=O)NCC(=O)N[C@@H](CCCCN)C(=O)N[C@@H](CCCCN)C(=O)NCC(=O)N[C@@H](CCCCN)C(=O)N[C@@H](CCCCN)C(=O)NCC(N)=O` [KKGKKGKKG], for which the MIC in assay [20], in assay [21] and in [22] was at least 800 µM each time.

Regarding `CC[C@H](C)[C@H](NC(=O)[C@H](Cc1ccccc1)NC(=O)[C@H](CCCCN)NC(=O)[C@H](CC(C)C)NC(=O)[C@H](CC(C)C)NC(=O)[C@@H](N)CCCCN)C(=O)N[C@@H](CCCCN)C(=O)N[C@@H](CCCCN)C(=O)N[C@@H](CC(C)C)C(=O)N[C@@H](CC(C)C)C(N)=O` [KLLKFIKKLL], the MIC is 8.04 µM (≈ 9.99 µg/mL) in assay [5], at least 322 µM in assay [6], 24.1 µM (≈ 30 µg/mL) against Candida parapsilosis and at least 32.2 µM against Bacillus subtilis DELTA.

As for `CC(C)[C@@H]1NC(=O)CNC(=O)[C@H](CCCN=C(N)N)NC(=O)[C@H](CCCN=C(N)N)NC(=O)[C@H](CCCN=C(N)N)NC(=O)[C@H](C)NC(=O)[C@H](Cc2ccc(O)cc2)NC(=O)[C@H](C(C)C)NC(=O)[C@@H](NC(=O)[C@H](Cc2c[nH]c3ccccc23)NC(=O)[C@@H](N)CCCN=C(N)N)CSSC[C@@H](C(=O)N[C@@H](Cc2c[nH]c3ccccc23)C(=O)O)NC(=O)[C@H](CCCN=C(N)N)NC(=O)[C@H](CCCN=C(N)N)NC(=O)[C@H](Cc2ccc(O)cc2)NC(=O)[C@H](CCCN=C(N)N)NC1=O` [RWCVYARRRGVRYRRCW], the values for the MIC (in assay [7]; against Escherichia coli C600; in [23]) were 50 µM (≈ 117 µg/mL), 3.13 µM (≈ 7.33 µg/mL) and 3.13 µM (≈ 7.33 µg/mL), respectively.
